Results published in US8153773B2, “Synthesis and use of anti-reverse phosphorothioate analogs of the messenger RNA cap” (Board of Supervisors of Louisiana State University and …, priority 2007, dated 2012).
Entries after “also recorded” stand apart in the source; their conditions may differ.

Legend:
[1] = target: hDcp2 (Homo sapiens, UniProt Q8IU60); experiment: In vitro RNA decapping assay with recombinant hDcp2; type: biochemical; details: for hydrolysis of capped oligonucleotide by hDcp2: capped 32P-labeled short RNA, recombinant hDcp2, anion exchange HPLC (FIG. 6); for Dcp2 susceptibility: radioactivity in pGp* as a percentage of total cap radioactivity, capped oligonucleotides digested with hDcp2
Method: Dcp2 activity was measured with capped 48-nt oligonucleotides as substrates, a truncated form of luciferase mRNA (48 nucleotides). GST-hDcp2 was expressed in Escherichia coli and purified as described by Z. Wang et al., “The hDcp2 protein is a mammalian mRNA decapping enzyme,” Proc. Natl. Acad. Sci. U.S.A., vol. 99, pp. 12663-12668 (2002). Capped oligonucleotides were first subjected to digestion with GST-hDcp2 at 37° C. for 2 h in decapping buffer (10 mM Tris-HCl, pH 7.5, 100 mM potassium acetate, 2 mM magnesium acetate, 0.5 mM MnCl2, 2 mM dithiothreitol, and 0.1 mM spermine). See C. Piccirillo et al., “Functional characterization of the mammalian mRNA decapping enzyme hDcp2,” RNA, vol. 9, pp. 1138-1147 (2003). The reaction mixture was then extracted once with an equal volume of phenol and twice with chloroform, and RNA was precipitated with ethanol. Products of the decapping reaction were further digested with a cocktail of ribonucleases (RiboShredder; Epicentre) at 37° C. for 1 h. The products were resolved by anion-exchange HPLC on a 4.6×250-mm Partisil 10SAX/25 column (Whatman). The gradient consisted of water for 1 min, a linear gradient to 112 mM KH2PO4, pH 4.5, for 20 min, a linear gradient of 112-450 mM KH2PO4 for 15 min, a linear gradient of 450 mM to 1.5 M KH2PO4 for 15 min, and isocratic elution at 1.5 M of KH2PO4 for 9 min, all at a flow rate 1 ml/min.
We tested oligonucleotides capped with either of S-ARCAs for hydrolysis by recombinant hDcp2 to test whether mRNA capped with the various diastereomers of m2^7,2′-OGpppsG and m2^7,2′-OGppspG would differ in their sensitivity to cleavage by Dcp1/Dcp2. See generally Z. Wang et al., “The hDcp2 protein is a mammalian mRNA decapping enzyme,” Proc. Natl. Acad. Sci. U.S.A., vol. 99, pp. 12663-12668 (2002), and Z. Wang et al., “An mRNA Stability Complex Functions with Poly(A)-Binding Protein To Stabilize mRNA In Vitro”, Mol. Cell. Biol., vol. 19, pp. 4552-4560 (1999). Cap analogs used were initially unlabeled, so to follow the products of the digestion reaction we synthesized capped oligonucleotides in the presence of [α-^32P]GTP and a DNA template in which G was the first ribonucleotide specified after the promoter. The oligonucleotides capped with either of the S-ARCAs were subjected to Dcp2 digestion in vitro, after which the products were further digested with a cocktail of ribonucleases (RiboShredder from Epicenter). Any nucleotide on the 5′ side of a G residue acquired a ^32P-labeled 3′-phosphate group after ribonuclease digestion by nearest-neighbor transfer. Anion exchange chromatography was then used to resolve the labeled 3′-nucleoside monophosphates (3′-NMP*), at internal positions in the RNA, from labeled 5′-terminal products (FIG. 6). The latter comprise p3 Gp* derived from uncapped transcripts and m2^7,2′-OGp3 Gp* (when m2^7,2′-OGp3G was used), or pGp* resulting from capped RNA resistant or nonresistant to enzymatic cleavage, respectively. All cap analogs used were ARCAs, which ensured that they were incorporated into RNA exclusively in the correct orientation. This further guaranteed that only one 5′-terminal product (m2^7,2′-OGp3 Gp*) was observed upon ribonuclease treatment. Uncapped RNA is not a substrate for Dcp2, which explains why p3 Gp* product was observed after Dcp2 digestion.
See E. Grudzien et al., “Differential inhibition of mRNA degradation pathways by novel cap analogs,” J. Biol. Chem., vol. 281, pp. 1857-1867 (2006).

[2] = target: T1, murine eIF4E (28-217) (Mus musculus, UniProt P63073); experiment: Binding affinities for eIF4E by fluorescence quenching; set-up: Cap - eIF4E KAS: unit not given here; details: for ΔG°: binding free energy calculated from KAS; for ΔG° / KAS: murine eIF4E (28-217); for Cap - eIF4E KAS / KAS: equilibrium association constant; for Cap - eIF4E KAS: mouse eIF4E (amino acids 28-217), 20° C.; for KAS: fluorescence quenching; for affinity for eIF4E (KAS) relative to m2^7,2′-OGpppG: fold higher than the parent ARCA; for affinity for eIF4E (KAS) of D1 relative to D2 diastereomer: fold higher than the D2 member
T1 construct: (28-217) to phosphorothioate cap analogs, as determined
Method: Binding affinities of S analogs for murine eIF4E were determined by fluorescence quenching. Fluorescence titration measurements were carried out on an LS-50B spectrofluorometer (Perkin Elmer Co.) in 50 mM HEPES/KOH (pH 7.2), 100 mM KCl, 0.5 mM EDTA, 1 mM DTT at 20.0±0.2° C. Aliquots of 1 μl increasing concentration of cap analogue solutions were added to 1.4 ml of […] solutions. Fluorescence intensities (excitation at 280 nm with 2.5 nm bandwidth and detection at 337 nm with 4 nm bandwidth and 290 nm cut-off filter) were corrected taking into account sample dilution and the inner filter effect. Equilibrium association constants (KAS) were determined by fitting the theoretical dependence of the fluorescence intensity on the total concentration of cap analogue to the experimental data points according to equation described previously (See A. Niedzwiecka et al., “Biophysical studies of eIF4E cap-binding protein: recognition of mRNA 5′ cap structure and synthetic fragments of eIF4G and 4E-BP1 proteins,” J. Mol. Biol., vol. 319, pp. 615-635 (2002)). The concentration of protein was fitted as a free parameter of equilibrium equation showing amount of “active” protein. The final KAS was calculated as a weighted average of three to ten independent titrations, with the weights taken as the reciprocals of the numerical standard deviations squared. Numerical nonlinear least-squares regression analysis was performed using ORGIN 6.0 (Microcal Software Inc., USA). The Gibbs free energy of binding was calculated from the KAS value according to the standard equation ΔG°=−RTlnKAS.

T1 sequence (P63073 28-217): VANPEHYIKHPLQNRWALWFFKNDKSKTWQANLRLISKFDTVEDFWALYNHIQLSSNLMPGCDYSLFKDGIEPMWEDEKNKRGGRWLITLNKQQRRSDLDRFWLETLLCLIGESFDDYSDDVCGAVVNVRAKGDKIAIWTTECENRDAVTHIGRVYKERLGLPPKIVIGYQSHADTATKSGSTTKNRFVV

CO[C@@H]1[C@H](O)[C@@H](COP(=O)(O)OP(=O)([O-])OP(=O)(O)OC[C@H]2O[C@@H](n3cnc4c(=O)[nH]c(N)nc43)[C@H](O)[C@@H]2O)O[C@H]1n1c[n+](C)c2c(O)nc(N)nc21 [m2^7,2′-OGpppG, reference compound]
hydrolysis of capped oligonucleotide by hDcp2 [1]: completely digested | Dcp2 susceptibility [1]: 100% | ΔG° [2]: -9.43 kcal/mol | Cap - eIF4E KAS [2]: 10.8 ± 0.3 | KAS [2]: 10.8 ± 0.3 µM⁻¹

m2^7,2′-OGpppsG (D1) [Compound 4a]
Dcp2 susceptibility [1]: 96% | ΔG° [2]: -9.76 kcal/mol | Cap - eIF4E KAS [2]: 34.3 ± 1.3 | KAS [2]: 19.2 ± 0.8 µM⁻¹ | affinity for eIF4E (KAS) relative to m2^7,2′-OGpppG [2]: 3 fold

m2^7,2′-OGpppsG (D2) [Compound 4b]
Dcp2 susceptibility [1]: 98% | ΔG° [2]: -9.62 kcal/mol | Cap - eIF4E KAS [2]: 12.9 ± 0.9 | KAS [2]: 15.0 ± 0.6 µM⁻¹

m2^7,2′-OGppspG (D1) [Compound 5a]
hydrolysis of capped oligonucleotide by hDcp2 [1]: much more susceptible to Dcp2 than its D2 counterpart | Dcp2 susceptibility [1]: 71% | ΔG° [2]: -10.23 ± 0.02 kcal/mol | Cap - eIF4E KAS [2]: 42.1 ± 1.6 | KAS [2]: 43.1 ± 1.4 µM⁻¹ | affinity for eIF4E (KAS) of D1 relative to D2 diastereomer [2]: 2 fold

m2^7,2′-OGppspG (D2) [Compound 5b]
hydrolysis of capped oligonucleotide by hDcp2 [1]: stabilized RNA against hDcp2 hydrolysis; also recorded: resistant to hDcp2 hydrolysis | Dcp2 susceptibility [1]: 6% | ΔG° [2]: -9.77 kcal/mol | Cap - eIF4E KAS [2]: 18.3 ± 3.4 | KAS [2]: 19.3 ± 2.2 µM⁻¹

m2^7,2′-OGpsppG (D1) [Compound 6a]
Dcp2 susceptibility [1]: 84% | ΔG° [2]: -10.12 kcal/mol | Cap - eIF4E KAS [2]: 19.3 ± 1.8 | KAS [2]: 35.2 ± 1.1 µM⁻¹ | affinity for eIF4E (KAS) of D1 relative to D2 diastereomer [2]: 3 fold | affinity for eIF4E (KAS) relative to m2^7,2′-OGpppG [2]: 3 fold

m2^7,2′-OGpsppG (D2) [Compound 6b]
Dcp2 susceptibility [1]: 91% | ΔG° [2]: -9.53 kcal/mol | Cap - eIF4E KAS [2]: 15.4 ± 0.5 | KAS [2]: 12.9 ± 0.4 µM⁻¹
